target: HER2 kinase (Homo sapiens (Human), UniProt P04626); assay: Inhibition of HER2 kinase activity (ULight-labeled PolyGT substrate); assay type: biochemical; settings: HER2 kinase 10 nM, ATP 10 μM, 2 hours
Protocol: The assay for the inhibition of EGFR and HER2 kinase activity by small molecular compounds was carried out using the method as follows:
1) Dilution of the compounds
In a 96-well plate a, the compounds were diluted with DMSO using a 3-fold gradient dilution to form 11 concentrations, the 12th concentration is pure DMSO (as a positive control); and in a new 96-well plate b the above solutions were diluted 25 times with ultrapure water (DMSO concentration is 4%).
2) Transferring the compounds to 384-well plate
The compound solutions diluted with ultrapure water in the 96-well plate b above was transferred to the corresponding wells of a 384-well plate in duplicate.
3) Addition of 4×kinase solution: 2.5 μl of the above 4× kinase solution was taken using multichannel pipette and added to the corresponding reaction wells of the 384-well plate, mixed well and pre-reacted at room temperature for 5 minutes.
4) Addition of 2×substrate/ATP mixed solution: 5 μl of the above 2×substrate/ATP mixed solution was taken using multichannel pipette and added to the corresponding reaction wells of the 384-well plate.
5) Negative control: negative control wells were set in the 384-well plate, and 2.5 μl 4×substrate, 2.5 μl 4×enzyme solution, 2.5 μl 1×Kinase Assay Buffer and 2.5 μl ultrapure water containing 4% DMSO were added to each well.
6) Mixed by centrifugation and kept at room temperature for 2 hours in the dark.
7) Termination of the enzymatic reaction:
5 μl of the above 4× stop solution was pipetted to the corresponding wells of the 384-well plate, centrifuged and mixed, and reacted at room temperature for 5 minutes.
5 μl of the above 4× detection solution was pipetted into the corresponding wells of the 384-well plate, centrifuged and mixed, and reacted at room temperature for 1 hour.
9) The 384-well plate was placed into a microplate reader and the signal was detected using the corresponding program.
10) IC50 analysis: Well reading value=10000*EU665 value/EU615 value Inhibition rate=(reading value of positive control well−reading value of experimental well)/(reading value of positive control well−reading value of negative control well)*100% Corresponding IC50s can be calculated by entering the drug concentrations and the corresponding inhibition rates into GraphPad Prism 5.
Conditions of experiment for screening HER2 kinase inhibitory molecules:
The final concentration of HER2 kinase in the reaction system is 10 nM, the final concentration of ATP is 10 μM, the final concentration of substrate ULight™-labeled PolyGT is 100 nM, and the enzymatic reaction time is 2 hours.
The maximum final concentration of the compound in the reaction system is 2.5 μM, 11 concentrations were made with a 3-fold gradient dilution, and the minimal final concentration is 0.042 nM. The final concentration of DMSO is 1%.

Chain of HER2 kinase (P04626 23-1255): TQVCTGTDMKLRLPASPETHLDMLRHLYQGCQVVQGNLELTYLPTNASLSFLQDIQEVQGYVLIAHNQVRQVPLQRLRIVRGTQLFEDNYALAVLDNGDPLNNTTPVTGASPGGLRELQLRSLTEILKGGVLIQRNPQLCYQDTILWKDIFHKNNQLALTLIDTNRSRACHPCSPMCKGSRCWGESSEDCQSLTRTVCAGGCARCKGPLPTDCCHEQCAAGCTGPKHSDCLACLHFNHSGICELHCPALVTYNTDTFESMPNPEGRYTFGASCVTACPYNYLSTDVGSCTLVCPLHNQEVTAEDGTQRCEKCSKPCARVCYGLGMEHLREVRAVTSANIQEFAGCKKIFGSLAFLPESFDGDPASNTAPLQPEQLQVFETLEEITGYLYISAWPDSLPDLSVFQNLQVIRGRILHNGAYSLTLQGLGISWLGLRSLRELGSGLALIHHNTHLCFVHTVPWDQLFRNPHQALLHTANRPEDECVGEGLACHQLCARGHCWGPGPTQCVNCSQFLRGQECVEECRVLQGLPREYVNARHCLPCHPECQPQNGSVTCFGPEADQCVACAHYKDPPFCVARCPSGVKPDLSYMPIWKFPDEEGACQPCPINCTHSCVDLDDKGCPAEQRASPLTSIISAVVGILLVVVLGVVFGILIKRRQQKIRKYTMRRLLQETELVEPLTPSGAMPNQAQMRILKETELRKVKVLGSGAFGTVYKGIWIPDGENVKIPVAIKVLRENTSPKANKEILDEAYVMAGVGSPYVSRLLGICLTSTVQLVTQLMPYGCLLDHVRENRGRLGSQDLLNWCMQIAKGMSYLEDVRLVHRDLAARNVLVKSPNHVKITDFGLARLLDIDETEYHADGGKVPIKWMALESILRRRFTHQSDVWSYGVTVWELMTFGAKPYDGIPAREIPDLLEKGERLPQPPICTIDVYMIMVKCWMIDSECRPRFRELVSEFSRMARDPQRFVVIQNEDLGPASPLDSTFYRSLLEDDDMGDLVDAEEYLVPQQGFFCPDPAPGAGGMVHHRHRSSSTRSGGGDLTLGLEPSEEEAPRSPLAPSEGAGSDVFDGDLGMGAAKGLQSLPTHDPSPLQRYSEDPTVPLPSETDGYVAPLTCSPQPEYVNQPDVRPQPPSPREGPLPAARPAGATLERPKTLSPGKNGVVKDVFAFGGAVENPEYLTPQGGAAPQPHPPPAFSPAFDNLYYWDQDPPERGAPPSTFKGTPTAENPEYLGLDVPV

Structure (SMILES)	IC50
C=CC(=O)N1CCOc2c1ccc1ncnc(Nc3ccc(Oc4cccnc4)cc3)c21 [Example 13, 1-(10-((4-(pyridin-3-yloxy)phenyl)amino)-2,3-dihydro-4H-[1,4]oxazino[2,3-f]quinazolin-4-yl)prop-2-en-1-one]	≤ 50 nM
C=CC(=O)N1CCOc2c1ccc1ncnc(Nc3ccc(Oc4cccc(OC)c4)cc3)c21 [Example 14, 1-(10-((4-(3-methoxyphenoxy)phenyl)amino)-2,3-dihydro-4H-[1,4]oxazino[2,3-f]quinazolin-4-yl)prop-2-en-1-one]	≤ 50 nM
C=CC(=O)N1CCOc2c1ccc1ncnc(Nc3ccc(Oc4nccs4)cc3)c21 [Example 15, 1-(10-((4-(thiazol-2-yloxy)phenyl)amino)-2,3-dihydro-4H-[1,4]oxazino[2,3-f]quinazolin-4-yl)prop-2-en-1-one]	≤ 50 nM
C=CC(=O)N1CCOc2c1ccc1ncnc(Nc3ccc(Oc4ccccc4)c(F)c3)c21 [Example 16, 1-(10-((3-fluoro-4-phenoxyphenyl)amino)-2,3-dihydro-4H-[1,4]oxazino[2,3-f]quinazolin-4-yl)prop-2-en-1-one]	≤ 50 nM
C=CC(=O)N1CCOc2c1ccc1ncnc(Nc3ccc(Oc4ccccc4)c(Cl)c3)c21 [Example 17, 1-(10-((3-chloro-4-phenoxyphenyl)amino)-2,3-dihydro-4H-[1,4]oxazino[2,3-f]quinazolin-4-yl)prop-2-en-1-one]	≤ 50 nM
C=CC(=O)N1CCOc2c1ccc1ncnc(Nc3ccc(OCc4ccc(F)cc4)cc3)c21 [Example 18, 1-(10-((4-((4-fluorobenzyl)oxy)phenyl)amino)-2,3-dihydro-4H-[1,4]oxazino[2,3-f]quinazolin-4-yl)prop-2-en-1-one]	≤ 50 nM
C=CC(=O)N1CCOc2c1ccc1ncnc(Nc3ccc(OCc4cccc(F)c4)cc3)c21 [Example 19, 1-(10-((4-((3-fluorobenzyl)oxy)phenyl)amino)-2,3-dihydro-4H-[1,4]oxazino[2,3-f]quinazolin-4-yl)prop-2-en-1-one]	≤ 50 nM
C=CC(=O)N1CCOc2c1ccc1ncnc(Nc3ccc(OCc4cccc(C(F)(F)F)c4)cc3)c21 [Example 20, 1-(10-((4-((3-trifluoromethylbenzyl)oxy)phenyl)amino)-2,3-dihydro-4H-[1,4]oxazino[2,3-f]quinazolin-4-yl)prop-2-en-1-one]	≤ 50 nM
C=CC(=O)N1CCOc2c1ccc1ncnc(Nc3ccc(OCc4ccccn4)cc3)c21 [Example 21, 1-(10-((4-(pyridin-2-ylmethoxy)phenyl)amino)-2,3-dihydro-4H-[1,4]oxazino[2,3-f]quinazolin-4-yl)prop-2-en-1-one]	≤ 50 nM
C=CC(=O)N1CCOc2c1ccc1ncnc(Nc3ccc(OCc4cccs4)cc3)c21 [Example 22, 1-(10-((4-(thiophen-2-ylmethoxy)phenyl)amino)-2,3-dihydro-4H-[1,4]oxazino[2,3-f]quinazolin-4-yl)prop-2-en-1-one]	≤ 50 nM
C=CC(=O)N1CCOc2c1ccc1ncnc(Nc3ccc(OCc4nccs4)cc3)c21 [Example 23, 1-(10-((4-(thiazol-2-ylmethoxy)phenyl)amino)-2,3-dihydro-4H-[1,4]oxazino[2,3-f]quinazolin-4-yl)prop-2-en-1-one]	≤ 50 nM
C=CC(=O)N1CCOc2c1ccc1ncnc(Nc3ccc(SCc4ccccc4)cc3)c21 [Example 24, 1-(10-((4-(benzylthio)phenyl)amino)-2,3-dihydro-4H-[1,4]oxazino[2,3-f]quinazolin-4-yl)prop-2-en-1-one]	≤ 50 nM
C=CC(=O)N1CCOc2c1ccc1ncnc(Nc3ccc(OCc4cccc(F)c4)c(C(F)(F)F)c3)c21 [Example 25, 1-(10-((4-((3-fluorobenzyl)oxy)-3-(trifluoromethyl)phenyl)amino)-2,3-dihydro-4H-[1,4]oxazino[2,3-f]quinazolin-4-yl)prop-2-en-1-one]	≤ 50 nM
C=CC(=O)N1CCOc2c1ccc1ncnc(Nc3ccc(OCc4cccc(F)c4)c(OC)c3)c21 [Example 26, 1-(10-((4-((3-fluorobenzyl)oxy)-3-(methoxy)phenyl)amino)-2,3-dihydro-4H-[1,4]oxazino[2,3-f]quinazolin-4-yl)prop-2-en-1-one]	≤ 50 nM
C=CC(=O)N1CCOc2c1ccc1ncnc(Nc3ccc(OCc4cccc(F)c4)c(F)c3)c21 [Example 27, 1-(10-((4-((3-fluorobenzyl)oxy)-3-fluorophenyl)amino)-2,3-dihydro-4H-[1,4]oxazino[2,3-f]quinazolin-4-yl)prop-2-en-1-one]	≤ 50 nM
C=CC(=O)N1CCOc2c1ccc1ncnc(Nc3ccc(Sc4ccc(F)cc4)cc3)c21 [Example 28, 1-(10-((4-((4-fluorophenyl)thio)phenyl)amino)-2,3-dihydro-4H-[1,4]oxazino[2,3-f]quinazolin-4-yl)prop-2-en-1-one]	≤ 50 nM

Second part, the compound after the results:

IC50	Structure (SMILES)
≤ 50 nM	C=CC(=O)N1CCOc2c1ccc1ncnc(Nc3ccc(Oc4cccc(C(F)(F)F)c4)cc3)c21 [Example 1, 1-(10-((4-(3-(trifluoromethyl)phenoxy)phenyl)amino)-2,3-dihydro-4H-[1,4]oxazino[2,3-f]quinazolin-4-yl)prop-2-en-1-one]
≤ 50 nM	C=CC(=O)N1CCOc2c1ccc1ncnc(Nc3ccc(Oc4cccc(C)c4)cc3)c21 [Example 5, 1-(10-((4-(m-tolyloxy)phenyl)amino)-2,3-dihydro-4H-[1,4]oxazino[2,3-f]quinazolin-4-yl)prop-2-en-1-one]
≤ 50 nM	C=CC(=O)N1CCOc2c1ccc1ncnc(Nc3ccc(Oc4cccc(Cl)c4)cc3)c21 [Example 6, 1-(10-((4-(3-chlorophenoxy)phenyl)amino)-2,3-dihydro-4H-[1,4]oxazino[2,3-f]quinazolin-4-yl)prop-2-en-1-one]
≤ 50 nM	C=CC(=O)N1CCOc2c1ccc1ncnc(Nc3ccc(Oc4cccc(F)c4)cc3)c21 [Example 7, 1-(10-((4-(3-fluorophenoxy)phenyl)amino)-2,3-dihydro-4H-[1,4]oxazino[2,3-f]quinazolin-4-yl)prop-2-en-1-one]
≤ 50 nM	C=CC(=O)N1CCOc2c1ccc1ncnc(Nc3ccc(Oc4ccccc4F)cc3)c21 [Example 8, 1-(10-((4-(2-fluorophenoxy)phenyl)amino)-2,3-dihydro-4H-[1,4]oxazino[2,3-f]quinazolin-4-yl)prop-2-en-1-one]
≤ 50 nM	C=CC(=O)N1CCOc2c1ccc1ncnc(Nc3ccc(Oc4ccc(F)cc4)cc3)c21 [Example 9, 1-(10-((4-(4-fluorophenoxy)phenyl)amino)-2,3-dihydro-4H-[1,4]oxazino[2,3-f]quinazolin-4-yl)prop-2-en-1-one]
≤ 50 nM	C=CC(=O)N1CCOc2c1ccc1ncnc(Nc3ccc(Oc4ccc(Cl)cc4)cc3)c21 [Example 10, 1-(10-((4-(4-chlorophenoxy)phenyl)amino)-2,3-dihydro-4H-[1,4]oxazino[2,3-f]quinazolin-4-yl)prop-2-en-1-one]
≤ 50 nM	C=CC(=O)N1CCOc2c1ccc1ncnc(Nc3ccc(Oc4ccccc4OC)cc3)c21 [Example 11, 1-(10-((4-(2-methoxyphenoxy)phenyl)amino)-2,3-dihydro-4H-[1,4]oxazino[2,3-f]quinazolin-4-yl)prop-2-en-1-one]
≤ 50 nM	C=CC(=O)N1CCOc2c1ccc1ncnc(Nc3ccc(Oc4ccccn4)cc3)c21 [Example 12, 1-(10-((4-(pyridin-2-yloxy)phenyl)amino)-2,3-dihydro-4H-[1,4]oxazino[2,3-f]quinazolin-4-yl)prop-2-en-1-one]
